From patent publication US20220119354A1, “DIAMINO-SUBSTITUTED PYRIDINES AND PYRIMIDINES AS HERBICIDES” (FMC Corporation, priority 2019, published 2022)

Assays:
Assay type in all cases: in vivo
[1] = tested on: wheat (Triticum aestivum); test: Test A postemergence, wheat; details: 0 to 100 scale
Summary of the method: (§1)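 0–100 visual control rating, ~10 d post-treatment, greenhouse. Pre = directed soil spray on seeded loam/sand; post = spray at 1–2 leaf stage. Surfactant-containing solvent formulation.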

[2] = tested on: ryegrass, Italian (Lolium multiflorum); test: Test A preemergence, Italian ryegrass; details: 0 to 100 scale; for Ryegrass, Italian plant response rating: 0 is no effect, 100 is complete control
Summary of the method: as §1

[3] = tested on: ragweed (common ragweed, Ambrosia elatior); test: Test A preemergence, ragweed; details: 0 to 100 scale; for Ragweed plant response rating: 0 is no effect, 100 is complete control
Summary of the method: as §1

[4] = tested on: sedge, umbrella (small-flower umbrella sedge, Cyperus difformis); test: Test B flooded paddy test, umbrella sedge; details: Flood, 250 g ai/ha, applied to paddy water, 2-leaf stage, visual evaluation after 13 to 15 d
Summary of the method: (§2)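 2-leaf seedlings; pots flooded 3 cm above soil; compound added straight to paddy water; depth maintained. Greenhouse 13–15 d. Visual rating vs controls, 0–100 scale (0 = no effect, 100 = complete control).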

[5] = tested on: rice (Oryza sativa); test: Test B flooded paddy test, rice; details: Flood, 250 g ai/ha, applied to paddy water, 2-leaf stage, visual evaluation after 13 to 15 d
Summary of the method: as §2

[6] = tested on: barnyardgrass (Echinochloa crus-galli); test: Test A postemergence, barnyardgrass; details: 0 to 100 scale
Summary of the method: as §1

[7] = tested on: foxtail, giant (Setaria faberii); test: Test A preemergence, giant foxtail; details: 0 to 100 scale; for Foxtail, Giant plant response rating: 0 is no effect, 100 is complete control
Summary of the method: as §1

[8] = tested on: ragweed (common ragweed, Ambrosia elatior); test: Test A postemergence, ragweed; details: 0 to 100 scale
Summary of the method: as §1

[9] = tested on: kochia (Kochia scoparia); test: Test A postemergence, kochia; details: 0 to 100 scale
Summary of the method: as §1

[10] = tested on: kochia (Kochia scoparia); test: Test A preemergence, kochia; details: 0 to 100 scale; for Kochia plant response rating: 0 is no effect, 100 is complete control
Summary of the method: as §1

[11] = tested on: pigweed (Amaranthus retroflexus); test: Test A postemergence, pigweed; details: 0 to 100 scale
Summary of the method: as §1

[12] = tested on: blackgrass (Alopecurus myosuroides); test: Test A postemergence, blackgrass; details: 0 to 100 scale
Summary of the method: as §1

[13] = tested on: barnyardgrass (Echinochloa crus-galli); test: Test B flooded paddy test, barnyardgrass; details: Flood, 250 g ai/ha, applied to paddy water, 2-leaf stage, visual evaluation after 13 to 15 d
Summary of the method: as §2

[14] = tested on: pigweed (Amaranthus retroflexus); test: Test A preemergence, pigweed; details: 0 to 100 scale; for Pigweed plant response rating: 0 is no effect, 100 is complete control
Summary of the method: as §1

[15] = tested on: ryegrass, Italian (Lolium multiflorum); test: Test A postemergence, Italian ryegrass; details: 0 to 100 scale
Summary of the method: as §1

[16] = tested on: ducksalad (Heteranthera limosa); test: Test B flooded paddy test, ducksalad; details: Flood, 250 g ai/ha, applied to paddy water, 2-leaf stage, visual evaluation after 13 to 15 d
Summary of the method: as §2

[17] = tested on: corn (Zea mays); test: Test A postemergence, corn; details: 0 to 100 scale
Summary of the method: as §1

[18] = tested on: galium (catchweed bedstraw, Galium aparine); test: Test A postemergence, galium; details: 0 to 100 scale
Summary of the method: as §1

[19] = tested on: foxtail, giant (Setaria faberii); test: Test A postemergence, giant foxtail; details: 0 to 100 scale
Summary of the method: as §1

[20] = tested on: barnyardgrass (Echinochloa crus-galli); test: Test A preemergence, barnyardgrass; details: 0 to 100 scale; for Barnyardgrass plant response rating: 0 is no effect, 100 is complete control
Summary of the method: as §1

[21] = 125 g ai/ha, 0 no effect, 100 complete control
[22] = 500 g ai/ha, 0 no effect, 100 complete control

CC(Nc1ncc([N+](=O)[O-])c(N)n1)c1cc2ccccc2s1 (centres unmarked) [Compound 99]
60: Plant response rating, Foxtail, Giant [19, 22]
20: Ryegrass, Italian plant response rating ([2]; 125 g ai/ha) | Plant response rating, Ragweed [8, 21] | Plant response rating, Galium [18, 21]
80: Ryegrass, Italian plant response rating ([2]; 500 g ai/ha) | Plant response rating, Ragweed [8, 22] | Plant response rating, Kochia [9, 22]
70: Plant response rating, Barnyardgrass [6, 22] | Foxtail, Giant plant response rating ([7]; 125 g ai/ha) | Plant response rating, Pigweed [11, 22] | Plant response rating, Galium [18, 22]
50: Plant response rating, Kochia [9, 21] | Plant response rating, Pigweed [11, 21]
100: Ragweed plant response rating ([3]; 500 g ai/ha) | Foxtail, Giant plant response rating ([7]; 500 g ai/ha) | Pigweed plant response rating ([14]; 500 g ai/ha)
10: Plant response rating, Foxtail, Giant [19, 21]
30: Plant response rating, Barnyardgrass [6, 21] | Plant response rating, Corn [17, 22]
90: Ragweed plant response rating ([3]; 125 g ai/ha) | Kochia plant response rating ([10]; 500 g ai/ha) | Barnyardgrass plant response rating ([20]; 500 g ai/ha)
40: Pigweed plant response rating ([14]; 125 g ai/ha) | Plant response rating, Ryegrass, Italian [15, 22] | Barnyardgrass plant response rating ([20]; 125 g ai/ha)
0: Plant response rating, Wheat [1, 21] | Plant response rating, Wheat [1, 22] | Plant response rating, Sedge, Umbrella (0 to 100 scale, 0 is no effect, 100 is complete control) [4] | Plant response rating, Rice (0 to 100 scale, 0 is no effect, 100 is complete control) [5] | Kochia plant response rating ([10]; 125 g ai/ha) | Plant response rating, Blackgrass [12, 21] | Plant response rating, Blackgrass [12, 22] | Plant response rating, Barnyardgrass (0 to 100 scale, 0 is no effect, 100 is complete control) [13] | Plant response rating, Ryegrass, Italian [15, 21] | Plant response rating, Ducksalad (0 to 100 scale, 0 is no effect, 100 is complete control) [16] | Plant response rating, Corn [17, 21]

C[C@@H](Nc1ncc(C(F)(F)F)c(N)n1)c1cc2cc(Cl)ccc2o1 [Compound 2]
0: Plant response rating, Wheat ([1]; 125 g ai/ha) | Plant response rating, Wheat ([1]; 500 g ai/ha) | Plant response rating, Ryegrass, Italian ([2]; 125 g ai/ha) | Plant response rating, Ryegrass, Italian ([2]; 500 g ai/ha) | Plant response rating, Ragweed ([3]; 125 g ai/ha) | Plant response rating, Ragweed ([3]; 500 g ai/ha) | Plant response rating, Sedge, Umbrella (0 to 100 scale, 0 is no effect, 100 is complete control) [4] | Plant response rating, Rice (0 to 100 scale, 0 is no effect, 100 is complete control) [5] | Plant response rating, Barnyardgrass ([6]; 125 g ai/ha) | Plant response rating, Foxtail, Giant ([7]; 125 g ai/ha) | Plant response rating, Foxtail, Giant ([7]; 500 g ai/ha) | Plant response rating, Ragweed ([8]; 125 g ai/ha) | Plant response rating, Kochia ([9]; 125 g ai/ha) | Plant response rating, Kochia ([9]; 500 g ai/ha) | Plant response rating, Kochia ([10]; 125 g ai/ha) | Plant response rating, Kochia ([10]; 500 g ai/ha) | Plant response rating, Blackgrass ([12]; 125 g ai/ha) | Plant response rating, Blackgrass ([12]; 500 g ai/ha) | Plant response rating, Barnyardgrass (0 to 100 scale, 0 is no effect, 100 is complete control) [13] | Plant response rating, Ryegrass, Italian ([15]; 125 g ai/ha) | Plant response rating, Ryegrass, Italian ([15]; 500 g ai/ha) | Plant response rating, Ducksalad (0 to 100 scale, 0 is no effect, 100 is complete control) [16] | Plant response rating, Corn ([17]; 125 g ai/ha) | Plant response rating, Corn ([17]; 500 g ai/ha) | Plant response rating, Galium ([18]; 125 g ai/ha) | Plant response rating, Foxtail, Giant ([19]; 125 g ai/ha) | Plant response rating, Foxtail, Giant ([19]; 500 g ai/ha) | Plant response rating, Barnyardgrass ([20]; 125 g ai/ha) | Plant response rating, Barnyardgrass ([20]; 500 g ai/ha)
10: Plant response rating, Barnyardgrass ([6]; 500 g ai/ha) | Plant response rating, Pigweed ([14]; 125 g ai/ha)
40: Plant response rating, Pigweed ([11]; 125 g ai/ha)
30: Plant response rating, Galium ([18]; 500 g ai/ha)
90: Plant response rating, Pigweed ([11]; 500 g ai/ha)
20: Plant response rating, Ragweed ([8]; 500 g ai/ha) | Plant response rating, Pigweed ([14]; 500 g ai/ha)

Cc1cc(F)cc(OCC(C)Nc2ncc(C(F)(F)F)c(N)n2)c1 (centres unmarked) [Compound 39]
10: Plant response rating, Ryegrass, Italian ([2]; 500 g ai/ha) | Plant response rating, Corn ([17]; 125 g ai/ha) | Plant response rating, Foxtail, Giant ([19]; 500 g ai/ha)
40: Plant response rating, Ragweed ([8]; 500 g ai/ha) | Plant response rating, Kochia ([9]; 125 g ai/ha) | Barnyardgrass plant response rating ([20]; 125 g ai/ha)
80: Plant response rating, Kochia ([10]; 500 g ai/ha) | Plant response rating, Pigweed ([14]; 500 g ai/ha)
100: Plant response rating, Ragweed ([3]; 500 g ai/ha)
60: Plant response rating, Pigweed ([11]; 500 g ai/ha)
70: Ragweed plant response rating ([3]; 125 g ai/ha) | Plant response rating, Kochia ([9]; 500 g ai/ha) | Pigweed plant response rating ([14]; 125 g ai/ha) | Plant response rating, Galium ([18]; 125 g ai/ha) | Plant response rating, Galium ([18]; 500 g ai/ha)
50: Plant response rating, Ryegrass, Italian ([15]; 500 g ai/ha)
0: Plant response rating, Wheat ([1]; 125 g ai/ha) | Plant response rating, Wheat ([1]; 500 g ai/ha) | Ryegrass, Italian plant response rating ([2]; 125 g ai/ha) | Plant response rating, Sedge, Umbrella (0 to 100 scale, 0 is no effect, 100 is complete control) [4] | Plant response rating, Rice (0 to 100 scale, 0 is no effect, 100 is complete control) [5] | Plant response rating, Barnyardgrass ([6]; 125 g ai/ha) | Plant response rating, Barnyardgrass ([6]; 500 g ai/ha) | Plant response rating, Ragweed ([8]; 125 g ai/ha) | Kochia plant response rating ([10]; 125 g ai/ha) | Plant response rating, Blackgrass ([12]; 125 g ai/ha) | Plant response rating, Blackgrass ([12]; 500 g ai/ha) | Plant response rating, Barnyardgrass (0 to 100 scale, 0 is no effect, 100 is complete control) [13] | Plant response rating, Ryegrass, Italian ([15]; 125 g ai/ha) | Plant response rating, Ducksalad (0 to 100 scale, 0 is no effect, 100 is complete control) [16] | Plant response rating, Foxtail, Giant ([19]; 125 g ai/ha)
20: Plant response rating, Pigweed ([11]; 125 g ai/ha) | Plant response rating, Corn ([17]; 500 g ai/ha)
90: Plant response rating, Foxtail, Giant ([7]; 500 g ai/ha) | Plant response rating, Barnyardgrass ([20]; 500 g ai/ha)
